Laboratory results from PMC5851651, “Population-specific design of de-immunized protein biotherapeutics” (PLoS Computational Biology, 2018).

Key:
[1] = tested on: DRB1*15:01, DRB1*03:01 and DRB1*07:01; test: Experimental immunogenicity score: relative HLA binding combined across alleles, weighted by allele frequency; design: species or system human; key: allele-frequency-weighted sum of binding, % of control peptide signal; conditions: for Difference to WT (Experimental Score): per peptide against wild-type counterpart; for Experimental Score: per peptide, weights DRB1*15:01 0.162, DRB1*07:01 0.146, DRB1*03:01 0.143
Description: (§1) To test the designs, we synthesized twenty overlapping 15-mer peptides containing the introduced mutations and their wild-type counterparts. The peptides maximally covered the predicted epitopes around the mutations of all designed constructs that contained one and two mutations (Supplementary S2 Table). The affinity of these peptides to the three HLA alleles was measured at time zero and after 24 hours (Methods, Supplementary S3 and S4 Tables). We linearly combined the measured relative affinity scores across HLA alleles weighted by their allele frequencies for each peptide respectively to produce a score that approximates the overall immunogenicity (Fig 5A). Results are presented for measurements taken at time point zero. […] Overall, the measured and predicted immunogenicity of the tested peptides correlated well with r = 0.76 (CI95 = [0.48, 0.91], t = 4.885, df = 17, p-value = 1.4e-4; Fig 5A). Next, we compared the predicted and measured gain or loss in immunogenicity for the whole region by reconstructing the targeted region using overlapping peptides. The measured relative scores were linearly combined (as previously) and then normalized to the number of overlapping peptides used in the reconstruction (Fig 5B). The difference in the measured scores between the wild type and mutant regions can be thought of as a proxy for gain or loss in immunogenicity and correlated well to the predicted changes (r = 0.86, CI95 = [0.40, 0.97], t = 4.136, df = 6, p-value = 6.1e-3; Fig 5B).
Fig 5 (A) Correlation of experimental and predicted immunogenicity of each peptide. The experimental immunogenicity score of a peptide is defined as the linear combination of the individual experimentally determined relative HLA binding affinity of each HLA allele h ∈ H weighted by the HLA allele frequency. (B) Correlation of experimental and predicted immunogenicity of the whole redesigned region. The summarized immunogenicity score of the whole region is the linear combination of the overlapping peptides used to reconstruct the region, normalized by total number of peptides used. The predicted immunogenicity scores per peptide were computed according to our immunogenicity objective function. The red lines are a fitted linear regression and the red tubes represent their 95-confidence interval.
(§2) In order to experimentally verify our in silico predictions for Factor VIII, we utilized the commercial REVEAL HLA-Peptide binding assay of ProImmune (www.proimmune.com). Peptides were synthesized using the PEPscreen custom library synthesis method, yielding high purity peptides for experimental analysis. HLA-peptide binding was assessed for the three HLA-DRB1 alleles used in this study (DRB1*15:01, DRB1*03:01 and DRB1*07:01). In short, the method compares the affinity of the studied peptide to the affinity of a high-affinity control peptide. Each peptide is then scored for binding to a certain HLA molecule relative to the score of the control peptide and reported as the percentage of the signal generated by the control peptide.

[2] = target: T1, DRB1*03:01 (Homo sapiens, UniProt P01903+P01911, A100K/A102G/A103R/A169T/F55Y/I96L/K41T/L162R/M171V/P40S/Q125H/Q178H/Q39Y/R42S/S66N/T106N/T262R/W38E/Y61H); test: REVEAL HLA-Peptide binding assay (ProImmune); conditions: score relative to high-affinity control peptide, percentage of the control signal
T1 construct: purchased ProImmune
Description: as §1, §2

[3] = target: T2, DRB1*15:01 (Homo sapiens, UniProt P01903+P01911); test: REVEAL HLA-Peptide binding assay (ProImmune); conditions: score relative to high-affinity control peptide, percentage of the control signal
T2 construct: purchased ProImmune
Description: as §1, §2

[4] = target: DRB1*07:01 (Homo sapiens, UniProt P01903+P01911, A100R/A102G/A103Q/D57E/D86V/E43K/F76Y/K127E/L162R/M171V/P40G/Q125H/Q99D/R33Q/R42Y/R54Q/S133A/S66F/T210M/V115G/Y107V/Y59L/Y89S); test: REVEAL HLA-Peptide binding assay (ProImmune); conditions: score relative to high-affinity control peptide, percentage of the control signal
Description: as §1, §2

[5] = time 0 (H0), listed as FTRYLRIHPQSWEHQ
[6] = time 0 (H0), listed as FTRYLRIHPQSWVHH
[7] = time 0 (H0), listed as LRIHPQSWEHQIALRM
[8] = time 0 (H0), listed as LRIHPQSWVHHIALRM
[9] = time 0 (H0), listed as LRIHPQSWVHQIALRM
[10] = time 0 (H0), listed as LTRHLRIHPQSWEHQ
[11] = time 0 (H0), listed as LTRLLRIHPQSWEHQ
[12] = time 0 (H0), listed as LTRYLRIHPQSWVHQ
[13] = time 0 (H0), listed as TTRYLRIHPQSWEHQ

| Sequence | DRB1*03:01 ([2]; after 24 hours (H24)) | DRB1*03:01 ([2]; time 0 (H0)) | DRB1*15:01 ([3]; after 24 hours (H24)) | DRB1*15:01 ([3]; time 0 (H0)) | DRB1*07:01 ([4]; after 24 hours (H24)) | DRB1*07:01 ([4]; time 0 (H0)) | Difference to WT (Experimental Score) ([1]; after 24 hours (H24)) | Experimental Score ([1]; after 24 hours (H24)) | Difference to WT (Experimental Score) ([1]; time 0 (H0)) | Experimental Score ([1]; time 0 (H0)) | other results |
| --- | --- | --- | --- | --- | --- | --- | --- | --- | --- | --- | --- |
| FTRYLRIHPQSWEHQ [Design M-10, peptide covering L2321F, V2333E] | 0.000% | 0.020% | 0.300% | 2.906% | 27.400% | 43.779% | -9.338 | 4.049 | -10.856 | 6.865 | DRB1*03:01 [2, 5]: 0%; DRB1*15:01 [3, 5]: 2.9%; DRB1*07:01 [4, 5]: 43.8% |
| FTRYLRIHPQSWVHH [Design M-13, peptide covering L2321F, Q2335H] | 0.000% | 1.449% | 7.500% | 16.564% | 29.800% | 39.809% | -7.821 | 5.566 | -9.019 | 8.703 | DRB1*03:01 [2, 6]: 1.4%; DRB1*15:01 [3, 6]: 16.6%; DRB1*07:01 [4, 6]: 39.8% |
| LRIHPQSWEHQIALRM [Design M-6, peptide covering V2333E] | 0.000% | 0.157% | 11.600% | 44.319% | 19.800% | 32.020% | -3.607 | 4.770 | -4.693 | 11.877 | DRB1*03:01 [2, 7]: 0.2%; DRB1*15:01 [3, 7]: 44.3%; DRB1*07:01 [4, 7]: 32% |
| LRIHPQSWVHHIALRM [Design M-5, peptide covering Q2335H] | 0.000% | 0.555% | 20.400% | 47.784% | 40.700% | 65.265% | 0.870 | 9.247 | 0.779 | 17.349 | DRB1*03:01 [2, 8]: 0.6%; DRB1*15:01 [3, 8]: 47.8%; DRB1*07:01 [4, 8]: 65.3% |
| LTRHLRIHPQSWEHQ [Design M-8, peptide covering Y2324H, V2333E] | 0.000% | 0.000% | 2.000% | 13.999% | 0.100% | 2.480% | -13.048 | 0.339 | -15.092 | 2.630 | DRB1*03:01 [2, 10]: 2.5%; DRB1*15:01 [3, 10]: 0.0%; DRB1*07:01 [4, 10]: 14.0% |
| LTRLLRIHPQSWEHQ [Design M-7, peptide covering Y2324L, V2333E] | 0.000% | 0.026% | 0.100% | 5.445% | 20.100% | 33.528% | -10.436 | 2.951 | -11.941 | 5.781 | DRB1*03:01 [2, 11]: 0%; DRB1*15:01 [3, 11]: 5.4%; DRB1*07:01 [4, 11]: 33.5% |
| LTRYLKIHPQSWEHQ [Design M-9, peptide covering R2326K, V2333E] | 0.000% | 1.668% | 0.300% | 5.434% | 17.900% | 28.951% | -10.725 | 2.662 | -12.376 | 5.346 | – |
| RIHPQSWVHHIALRM [Design M-4, peptide covering Q2335H] | 0.000% | 0.005% | 0.000% | 9.756% | 53.300% | 75.329% | 2.595 | 7.782 | 5.857 | 12.579 | – |
| TTRYLRIHPQSWEHQ [Design M-11, peptide covering L2321T, V2333E] | 0.000% | 0.544% | 1.600% | 6.575% | 49.600% | 71.612% | -5.886 | 7.501 | -6.123 | 11.598 | DRB1*03:01 [2, 13]: 0.5%; DRB1*15:01 [3, 13]: 6.6%; DRB1*07:01 [4, 13]: 71.6% |

The next lines start with results.

| DRB1*03:01 ([2]; after 24 hours (H24)) | DRB1*03:01 ([2]; time 0 (H0)) | DRB1*15:01 ([3]; after 24 hours (H24)) | DRB1*15:01 ([3]; time 0 (H0)) | DRB1*07:01 ([4]; after 24 hours (H24)) | DRB1*07:01 ([4]; time 0 (H0)) | Sequence | Difference to WT (Experimental Score) ([1]; after 24 hours (H24)) | Experimental Score ([1]; after 24 hours (H24)) | Difference to WT (Experimental Score) ([1]; time 0 (H0)) | Experimental Score ([1]; time 0 (H0)) | other results |
| --- | --- | --- | --- | --- | --- | --- | --- | --- | --- | --- | --- |
| 0.021% | 0.200% | 17.219% | 50.927% | 38.252% | 56.788% | LRIHPQSWVHQIALRM [WT-4, wild-type peptide of Factor VIII C2 domain, reference compound] | – | 8.377 | – | 16.570 | DRB1*03:01 [2, 9]: 0.2%; DRB1*15:01 [3, 9]: 50.9%; DRB1*07:01 [4, 9]: 56.8% |
| 0.000% | 0.032% | 5.300% | 18.099% | 21.500% | 42.841% | LRLHPQSWEHQIALRM [Design M-15, peptide covering I2327L, V2333E] | -4.380 | 3.998 | -7.378 | 9.191 | – |
| 0.243% | 0.243% | 15.728% | 30.478% | 74.002% | 87.324% | LTRYLRIHPQSWVHQ [WT-3, wild-type peptide of Factor VIII C2 domain, reference compound] | – | 13.387 | – | 17.722 | DRB1*03:01 [2, 12]: 0.2%; DRB1*15:01 [3, 12]: 30.5%; DRB1*07:01 [4, 12]: 87.3% |
| 0.000% | 0.226% | 0.00277% | 5.029% | 35.522% | 40.243% | RIHPQSWVHQIALRM [WT-2, wild-type peptide of Factor VIII C2 domain, reference compound] | – | 5.187 | – | 6.723 | – |
